According to ChEMBL document CHEMBL1201862, “PubChem BioAssay data set” (2004):
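Cultured in 96-well plates, cells were exposed to test compound for 48 hours across five concentrations. The concentration for 50% growth inhibition is given as GI50.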 Activity calls are given as the source filed them. Rule as the data show it: active = GI50 up to about 1.1 µM and inactive = higher.

Assays:
Assay in all cases: DTP human tumour cell line panel, 48 h
SK-OV-3 = tested on: SK-OV-3
CAKI-1 = tested on: CAKI-1
SNB-75 = tested on: SNB-75
MOLT-4 = tested on: MOLT-4
K562 = tested on: K562
SN12C = tested on: SN12C
HCT-116 = tested on: HCT-116
A549 = tested on: A549
EKVX = tested on: EKVX
SNB-19 = tested on: SNB-19
SF-295 = tested on: SF-295
RPMI-8226 = tested on: RPMI-8226
M14 = tested on: M14
LOX IMVI = tested on: LOX IMVI
HOP-62 = tested on: HOP-62
IGROV-1 = tested on: IGROV-1
RXF 393 = tested on: RXF 393
HCC 2998 = tested on: HCC 2998
OVCAR-3 = tested on: OVCAR-3
NCI-H23 = tested on: NCI-H23

Structure (SMILES)	GI50 (SK-OV-3)	GI50 (CAKI-1)	GI50 (SNB-75)	GI50 (MOLT-4)	GI50 (K562)	GI50 (SN12C)	GI50 (HCT-116)	GI50 (A549)	GI50 (EKVX)	GI50 (SNB-19)	GI50 (SF-295)	GI50 (RPMI-8226)	GI50 (M14)	GI50 (LOX IMVI)	GI50 (HOP-62)	GI50 (IGROV-1)	GI50 (RXF 393)	GI50 (HCC 2998)	GI50 (OVCAR-3)	GI50 (NCI-H23)
CCN(CC)CCn1c(=O)c2c(C)c3oc4ccccc4oc3c(C)c2c1=O	> 100 µM (inactive)	> 100 µM (inactive)	> 100 µM (inactive)	> 100 µM (inactive)	> 100 µM (inactive)	> 100 µM (inactive)	> 100 µM (inactive)	> 100 µM (inactive)	> 100 µM (inactive)	> 100 µM (inactive)	> 100 µM (inactive)	> 100 µM (inactive)	> 100 µM (inactive)	> 100 µM (inactive)	> 100 µM (inactive)	> 100 µM (inactive)	> 100 µM (inactive)	> 100 µM (inactive)	–	–
COc1cc(CC2CCc3nc(N)nc(N)c3C2)cc(OC)c1OC (stereo unspecified)	27.6 µM (inactive)	–	1.55 µM (inactive)	1.01 µM (active)	5.3 µM (inactive)	31.1 µM (inactive)	0.0457 µM (active)	0.0927 µM (active)	0.701 µM (active)	> 22.9 µM (inactive)	0.21 µM (active)	5.83 µM (inactive)	0.195 µM (active)	0.0798 µM (active)	2.05 µM (inactive)	0.131 µM (active)	0.0422 µM (active)	0.621 µM (active)	8.85 µM (inactive)	0.698 µM (active)
O=C(CCCl)NN=C1NCCCCN1	> 100 µM (inactive)	–	> 100 µM (inactive)	> 100 µM (inactive)	> 100 µM (inactive)	> 100 µM (inactive)	> 100 µM (inactive)	> 100 µM (inactive)	> 100 µM (inactive)	> 100 µM (inactive)	> 100 µM (inactive)	> 100 µM (inactive)	> 100 µM (inactive)	> 100 µM (inactive)	> 100 µM (inactive)	> 100 µM (inactive)	> 100 µM (inactive)	> 100 µM (inactive)	> 100 µM (inactive)	> 100 µM (inactive)
COC(=O)CCc1ccc2c(c1)CC1(C2)Cc2ccc(CCC(=O)OC)cc2C1	> 100 µM (inactive)	–	< 0.01 µM (active)	29.6 µM (inactive)	> 100 µM (inactive)	68.5 µM (inactive)	> 100 µM (inactive)	> 100 µM (inactive)	> 100 µM (inactive)	–	78 µM (inactive)	28.4 µM (inactive)	> 100 µM (inactive)	26.6 µM (inactive)	62.7 µM (inactive)	75.2 µM (inactive)	> 100 µM (inactive)	> 100 µM (inactive)	77.4 µM (inactive)	44.7 µM (inactive)
O=c1[nH]c(=S)[nH]c2c(C3OC(CO)C(O)C3O)nsc12 (stereo unspecified)	> 100 µM (inactive)	> 100 µM (inactive)	> 100 µM (inactive)	> 100 µM (inactive)	> 100 µM (inactive)	> 100 µM (inactive)	> 100 µM (inactive)	> 100 µM (inactive)	> 100 µM (inactive)	–	> 100 µM (inactive)	–	> 100 µM (inactive)	> 100 µM (inactive)	> 100 µM (inactive)	> 100 µM (inactive)	> 100 µM (inactive)	> 100 µM (inactive)	> 100 µM (inactive)	–
O=C(NNC(=S)Nc1ccccc1)c1cc(-c2ccccc2)nc2ccccc12	26.8 µM (inactive)	30.1 µM (inactive)	17.3 µM (inactive)	11.4 µM (inactive)	17.4 µM (inactive)	20.8 µM (inactive)	14.4 µM (inactive)	16.7 µM (inactive)	–	22.8 µM (inactive)	13.1 µM (inactive)	6.56 µM (inactive)	14.9 µM (inactive)	–	15.7 µM (inactive)	26.7 µM (inactive)	19 µM (inactive)	15.5 µM (inactive)	11.1 µM (inactive)	16.3 µM (inactive)
COc1ccc(/C=C2\c3cc(OC)c(OC)cc3CCN2C(=O)c2ccccc2)cc1OC	–	54 µM (inactive)	32 µM (inactive)	25.2 µM (inactive)	32.1 µM (inactive)	70.1 µM (inactive)	35.5 µM (inactive)	37.8 µM (inactive)	4.09 µM (inactive)	> 100 µM (inactive)	61.4 µM (inactive)	29.4 µM (inactive)	58.2 µM (inactive)	41.6 µM (inactive)	37.2 µM (inactive)	> 100 µM (inactive)	35.2 µM (inactive)	44.6 µM (inactive)	35.7 µM (inactive)	87.5 µM (inactive)
NNC(=O)CCC(=O)NC1C2CC3CC(C2)CC1C3 (stereo unspecified)	> 100 µM (inactive)	> 100 µM (inactive)	> 100 µM (inactive)	43.5 µM (inactive)	> 100 µM (inactive)	> 100 µM (inactive)	> 100 µM (inactive)	> 100 µM (inactive)	–	> 100 µM (inactive)	> 100 µM (inactive)	> 100 µM (inactive)	> 100 µM (inactive)	> 100 µM (inactive)	> 100 µM (inactive)	> 100 µM (inactive)	45.4 µM (inactive)	> 100 µM (inactive)	–	> 100 µM (inactive)
